# Laboratory results from patent US5380759A, “Methyl N-[6-(3,4,5-trimethoxybenzloxy)imidazo[1,2-b]pyridazin-2-zyl]carbamate used to treat leukemia” (priority 1987, dated 1995).
# Starred links: 1 amine or outer side, 2 acyl side, 3 side chain; linkers in the order of their positions; H or OH if unused. Positions of bridges follow the written chain, without caps; N, C: chain ends. Non-standard residues stand in square brackets, D forms with d. Residues, ends and D or L forms follow the SMILES beside them. Chains are numbered I, II in the order given. Actinocin(9to1) = Cc1c2oc3c(C)ccc(C(=O)[*:1])c3nc-2c(C(=O)[*:2])c(N)c1=O; NMeV = CN[C@H](C(=O)O)C(C)C; Sar = CNCC(=O)O
# Assays:
# [1] = test system: P388/ADR; experiment: In vivo activity against drug resistant tumour P388/ADR; set-up: species or system mouse; details: optimum dose 4.5 mg/kg
# Protocol: (§1) CD2-F1 mice, of the same sex, weighing within a 3 gram range surrounding 20 g, are used for this test. Control and test animals are injected intraperitoneally with a suspension of 10^6 viable P388/O tumour cells on day 0. In each test several dose levels which bracket the LD20 for the compound are evaluated; each dose level group contains 6 animals. The test compounds are prepared either in physiologic saline containing 0.05% Tween 80 or distilled water containing 5% dextrose and are administered intraperitoneally on days 1,5 and 9 relative to tumour implant. Doses are on a mg/kg basis according to individual animals' body weights. The day of death for each animal is recorded and the median day of death identified for each group. The difference between the median survival time for treated and control groups is expressed as a percentage increase in life span (% ILS).
# (§2) E. Activity Against Drug-Resistant Tumours
# (§3) Using a similar procedure to the Lymphocytic Leukaemia P388/O test, the compound of Example 1 was evaluated against P388/O tumours which had been made resistant to the following standard, clinically used anti-tumour agents: […]
# [2] = test system: microtubule function; details: cited from earlier work
# [3] = test system: P388/MTX; experiment: In vivo activity against drug resistant tumour P388/MTX; set-up: species or system mouse; details: optimum dose 3.0 mg/kg
# Protocol: as §1, §2, §3
# [4] = test system: P388/5FU; experiment: In vivo activity against drug resistant tumour P388/5FU; set-up: species or system mouse; details: optimum dose 20.0 mg/kg
# Protocol: as §1, §2, §3
# [5] = test system: P388/CPA; experiment: In vivo activity against drug resistant tumour P388/CPA; set-up: species or system mouse; details: optimum dose 265.0 mg/kg
# [6] = test system: P388/Cis--Pt; experiment: In vivo activity against drug resistant tumour P388/Cis-Pt; set-up: species or system mouse; details: optimum dose 5.3 mg/kg
# [7] = test system: P388/ActD; experiment: In vivo activity against drug resistant tumour P388/ActD; set-up: species or system mouse; details: optimum dose 0.5 mg/kg
# Protocol: as §1, §2, §3
# [8] = test system: P388/VCR; experiment: In vivo activity against drug resistant tumour P388/VCR; set-up: species or system mouse; details: optimum dose 1.5 mg/kg
# Protocol: as §1, §2, §3
# [9] = test system: P388/BCNU; experiment: In vivo activity against drug resistant tumour P388/BCNU; set-up: species or system mouse; details: optimum dose 2.0 mg/kg
# Protocol: as §1, §2
# Using a similar procedure to the Lymphocytic Leukaemia P388/O test, the compound of Example 1 was evaluated against P388/O tumours which had been made resistant to the following standard, clinically used anti-tumour agents:
# bis-chloronitrosourea (BCNU)
# [10] = test system: HCT-116 human colon carcinoma cells; experiment: In vitro activity against human tumour cell line HCT-116 (proliferation); format: cell-based; details: HCT-116, 96 h, MTT, read-out: IC50
# Protocol: (§4) Cells from the human tumour cell lines DLD-1, HCT-116, WiDr and A549 are exposed to serially diluted concentrations of test compounds over a 96 hour period in culture. The ability of such cells to proliferate over the test period is determined.
# (§5) Cells in log growth are plated into 96 well multiwell tissue culture dishes in 100 μl/well of RPMI 1640 culture medium supplemented with 10% foetal calf serum, antibiotics and test compound. All compounds are formulated initially at appropriate concentrations in DMSO, the final concentrations in this solvent being twenty times that required in the plate. A final 1 in 10 dilution in complete medium is then made before adding 100 μl to each well of the plate. All compounds are evaluated at concentrations ranging serially in four fold decrements from a top concentration some four fold greater than that already known to inhibit the proliferation of cells from the mouse lymphoid neoplasm, P388D1 by about 80 to 90 percent in a primary proliferative assay.
# (§6) After 96 hours the proliferation of cells exposed to test compound is compared with control untreated cells by one of two methods:
# (§7) b) 20 μl of MTT (5 mg/ml in PBS) is added to each well. After an incubation period of 4 hours the medium from each well is aspirated and replaced with 200 μl DMSO to dissolve the formazan crystals formed. Absorbances are read by an ELISA plate spectrophotometer at a wavelength of 540 nm. The IC50 is defined as that concentration of drug which decreases absorbance to 50% of that in control (drug-free) cultures. This method is used for the WiDr, HCT-116 and A549 cell lines.
# [11] = test system: WiDr human colon adenocarcinoma cells; experiment: In vitro activity against human tumour cell line WiDr (proliferation); format: cell-based; details: 96 h, MTT, read-out: IC50
# Protocol: as §4, §5, §6, §7
# [12] = test system: DLD-1 human colon carcinoma cells; experiment: In vitro activity against human tumour cell line DLD-1 (proliferation); format: cell-based; details: DLD-1, 96 h, methylene blue, read-out: IC50
# Protocol: as §4, §5, §6
# a) Culture supernatants are aspirated and cells fixed and stained by adding a solution of methylene blue (5 g per liter of 50% ethanol: water, 100 μl/well). After 30 minutes at room temperature unbound stain is washed off by immersing plates in water. Stained cells are solubilised overnight using 1% Sarkosyl (Sigma) in phosphate-buffered saline (100 μl/well). Absorbances are read by an ELISA plate spectrophotometer at a wavelength of 620 nm. The IC50 is defined as that concentration of drug which decreases absorbance to 50% of that in control (drug-free) cultures. This method is used for the DLD-1 cell line.
# [13] = test system: P388/O tumour; experiment: Lymphocytic leukaemia P388/O test; format: in vivo, mouse; details: Mus musculus, P388, ip
# Protocol: C. Lymphocytic Leukemia P388/O Test
# as §1
# [14] = test system: tubulin; experiment: Turbidimetric assay of tubulin polymerisation; format: biochemical, horse; details: 37° C., increase in A350nm 10 min after lag phase; read-out: Total tubulin polymerisation IC50
# Protocol: A) Tubulin Polymerisation Assay
# 1. Preparation of tubulin
# All manipulations are performed at 4° C. unless otherwise specified. The horse brain is washed in ice-cold BBG buffer and superficial meninges and blood vessels removed. After weighing, cerebral cortices are chopped, homogenised in 75 ml BBG buffer/100 g brain, centrifuged at 6500 g for 15 min and after removal of […], re-centrifuged at 100,000 g for 75 min. The volume of the supernatant (Vml) is measured and V/10 ml 10 mM GTP (Li salt) in H2 O added. The mixture is incubated in sealed centrifuge tubes (30 min, 34° C.) in a shaking water bath to polymerise the tubulin. After polymerisation the tubes are balanced and centrifuged at 100,000 g, (1 h at 27° C.) in a pre-warmed rotor. The high-speed pellet is resuspended in V/4 ml BB buffer and the preparation stirred on ice for 30 min and centrifuged at 100,000 g (1 h at 4° C.) to remove the cold-stable microtubules. An equal volume of BB2G buffer is added to the supernatant which is frozen rapidly in 5 ml samples in plastic weighing dishes floated on a solid CO2 /ethanol slurry, and stored overnight at -80° C. After ca. 18 hours the frozen samples of tubulin are thawed, 10 mM GTP in H2 O added to give a final concentration of 1 mM, and the new volume (Wml), is measured. The polymerisation/depolymerisation cycle is repeated exactly as above but substituting W for V to give twice-cycled tubulin.
# 2. Turbidimetric Assay of Tubulin Polymerisation
# Apparatus: recording spectrophotometer with a 6-position, thermostatted cuvette holder; full scale deflection=0.2 absorbance units.
# In a 1 ml spectrophotometer cuvette are mixed 100 μl 10 mM GTP (Li salt) made up in BB buffer, 10 μl H2 O or DMSO-depending on selected drug solvent, BB buffer and tubulin preparation such that the final increase in A350nm is 0.15 units after 16 mins (approx. 100 μl of tubulin prep. or 2.5 mg protein) in a final volume of 1 ml at 37° C. All reagents are stored on ice.
# Polymerisation is initiated by raising the temperature to 37° C. and the increase in A350nm of triplicate samples against a reference cuvette is recorded. The reference sample includes a similar incubation mixture either without tubulin or with the addition of 1 mM Ca^2+. The increase over initial A350nm 10 min after the completion of lag phase (control polymerisation is 80% complete within this time) is calculated and expressed as a percentage of the control value, for a range of drug concentrations. The drug concentration required to give a 50% change (IC50) in the control value is determined.
# [15] = test system: A549 human lung carcinoma cells; experiment: In vitro activity against human tumour cell line A549 (proliferation); format: cell-based; details: A549, 96 h, MTT, read-out: IC50
# Protocol: as §4, §5, §6, §7
# [16] = LD20 (Mouse); format: in vivo; details: i.p. days 1, 5 and 9, CD2-F1 mice, observed up to 14 days
# [17] = test system: P388 D1 cells; experiment: P388 D1 colony-forming assay; format: cell-based; details: Mus musculus, P388D1; 24 h exposure, 14 days colony growth; read-out: IC50 colony formation
# Protocol: B) P338D1 Colony-forming Assay
# In this assay, cells from an in vitro-adapted line of the mouse lymphoid neoplasm, P388 are first exposed to serially diluted concentrations of test compound over a 24 hour period in culture. Thereafter, the ability of such treated cells to form discrete colonies over a 14 day period after resuspension in a semi-solid drug-free medium is determined.
# Initially cells in log growth are plated into individual 25 cm^2 tissue culture flasks each containing a final volume of 5 mls of Hepes buffered RPMI 1640 culture medium supplemented with 10 percent foetal calf serum, antibiotics and test compound. All compounds are formulated initially at appropriate concentrations in DMSO, 25 microliters of which is then added to each flask. All compounds are evaluated at concentrations ranging serially in four fold decrements from a top concentration some four fold greater than that already known to inhibit the proliferation of these cells by about 80 to 90 percent in the primary proliferative assay.
# After 24 hrs exposure to the test compound the cells are counted and a known number of live cells transferred to a 15 ml centrifuge tube to which 4 mls of a 0.25 percent low temperature gelling agarose solution in complete RPMI tissue culture medium is then added. After 13 days incubation at 37° C., 1 ml of 1% p-Iodonitrotetrazolium violet is added to the top of each tube and allowed to permeate through the agarose for a further 24 to 48 hrs. This dye is metabolised by living cells to produce an insoluble red crystalline product which facilitates counting of the colonies. Samples are taken from each tube and the number of colonies containing a minimum of 50 cells is determined. The concentration of compound necessary to inhibit colony formation by 50 percent relative to that of control cells incubated under identical conditions but in the absence of the test compound is determined.
compound,measurement,setting,value
"COc1cccc2c1C(=O)c1c(O)c3c(c(O)c1C2=O)C[C@@](O)(C(=O)CO)C[C@@H]3O[C@H]1C[C@H](N)[C@H](O)[C@H](C)O1 [ADR, adriamycin, reference compound]",60 Day Survivors,[1],0/6
same,% ILS,[1],+27%
CCOC(=O)Nc1ccc(SCC2COC(Cn3ccnc3)(c3ccc(Cl)cc3Cl)O2)cc1 (stereo not drawn) [tubulazole],microtubule inhibitory activity,[2],microtubule inhibitory activity
"CN(Cc1cnc2nc(N)nc(N)c2n1)c1ccc(C(=O)N[C@@H](CCC(=O)O)C(=O)O)cc1 [MTX, methotrexate, reference compound]",60 Day Survivors,[3],0/6
same,% ILS,[3],+15%
"O=c1[nH]cc(F)c(=O)[nH]1 [Example 5FU, 5-fluorouracil, reference compound]",60 Day Survivors,[4],0/6
same,% ILS,[4],+71%
"O=P1(N(CCCl)CCCl)NCCCO1 (stereo not drawn) [CPA, cylophosphamide, reference compound]",60 Day Survivors,[5],0/6
same,% ILS,[5],+55%
"N.N.[Cl][Pt][Cl] [Cis--Pt, Cis-platinum, reference compound]",60 Day Survivors,[6],0/6
same,% ILS,[6],+21%
"Cc1c2oc3c(C)ccc(C(=O)N[C@@H]4C(=O)N[C@H](C(C)C)C(=O)N5CCC[C@H]5C(=O)N(C)CC(=O)N(C)[C@@H](C(C)C)C(=O)O[C@@H]4C)c3nc-2c(C(=O)N[C@@H]2C(=O)N[C@H](C(C)C)C(=O)N3CCC[C@H]3C(=O)N(C)CC(=O)N(C)[C@@H](C(C)C)C(=O)O[C@@H]2C)c(N)c1=O [ActD, actinomycin D, reference compound] (I: T[dV]P[Sar][NMeV] / II: T[dV]P[Sar][NMeV]; ester I:1-I:C, II:1-II:C; linker I:N-II:N via Actinocin(9to1))",60 Day Survivors,[7],0/6
same,% ILS,[7],+27%
"CC[C@]1(O)C[C@H]2CN(CCc3c([nH]c4ccccc34)[C@@](C(=O)OC)(c3cc4c(cc3OC)N(C=O)[C@H]3[C@@](O)(C(=O)OC)[C@H](OC(C)=O)[C@]5(CC)C=CCN6CC[C@]43[C@@H]65)C2)C1 [VCR, Vincristine, reference compound]",microtubule inhibitory activity,[2],inhibitor of microtubule function
same,60 Day Survivors,[8],0/6
same,% ILS,[8],+36%
COC(=O)Nc1nc2ccc(C(=O)c3cccs3)cc2[nH]1 [nocodazole],microtubule inhibitory activity,[2],microtubule inhibitory activity
CCOC(=O)Nc1cc2c(c(N)n1)N=C(CN(C)c1ccccc1)CN2 [NSC-181928],microtubule inhibitory activity,[2],microtubule inhibitory activity
"O=NN(CCCl)C(=O)NCCCl [BCNU, bis-chloronitrosourea, reference compound]",60 Day Survivors,[9],0/6
same,% ILS,[9],+36%
"CCOC(=O)Nc1cn2nc(OCc3cc(OC)c(OC)c(OC)c3)ccc2n1 [Example 7, Ethyl N-[6-(3,4,5-trimethoxybenzyloxy)imidazo[1,2-b]pyridazin-2-yl]carbamate]",IC50,[10],8.25 nM
same,IC50,[11],19.7 nM
same,IC50,[12],5.92 nM
same,ILS at 5 mg/kg,"[13]; 5 mg/kg i.p. days 1, 5 and 9",111%
same,IC50,[14],520 nM
same,IC50,[15],22.4 nM
same,LD50,[16],15 mg/kg
same,IC50,[17],6.34 nM
"CCCCOC(=O)Nc1cn2nc(OCc3cc(OC)c(OC)c(OC)c3)ccc2n1 [Example 5, n-Butyl N-[6-(3,4,5-trimethoxybenzyloxy)imidazo[1,2-b]pyridazin-2-yl]carbamate]",IC50,[10],3.3 nM
same,IC50,[11],3.65 nM
same,IC50,[12],7.34 nM
same,ILS at 150 mg/kg,"[13]; 150 mg/kg i.p. days 1, 5 and 9",61%
same,IC50,[14],490 nM
same,IC50,[15],4.36 nM
same,LD50,[16],140 mg/kg
same,IC50,[17],12.6 nM
